Earlier results, collected in PMC4461526 (Bioorganic & medicinal chemistry, 2015).

Experiments:
[1] = molecular target: T1, Human ABCC2 (Homo sapiens, UniProt Q92887); conditions: ref 30 (Kidron et al.)
[2] = molecular target: T1, Human ABCC2; conditions: ref 30 (Kidron et al.); for IC50: read-out: IC50 (inhibitors of EG)

T1 sequence (Q92887 whole entry): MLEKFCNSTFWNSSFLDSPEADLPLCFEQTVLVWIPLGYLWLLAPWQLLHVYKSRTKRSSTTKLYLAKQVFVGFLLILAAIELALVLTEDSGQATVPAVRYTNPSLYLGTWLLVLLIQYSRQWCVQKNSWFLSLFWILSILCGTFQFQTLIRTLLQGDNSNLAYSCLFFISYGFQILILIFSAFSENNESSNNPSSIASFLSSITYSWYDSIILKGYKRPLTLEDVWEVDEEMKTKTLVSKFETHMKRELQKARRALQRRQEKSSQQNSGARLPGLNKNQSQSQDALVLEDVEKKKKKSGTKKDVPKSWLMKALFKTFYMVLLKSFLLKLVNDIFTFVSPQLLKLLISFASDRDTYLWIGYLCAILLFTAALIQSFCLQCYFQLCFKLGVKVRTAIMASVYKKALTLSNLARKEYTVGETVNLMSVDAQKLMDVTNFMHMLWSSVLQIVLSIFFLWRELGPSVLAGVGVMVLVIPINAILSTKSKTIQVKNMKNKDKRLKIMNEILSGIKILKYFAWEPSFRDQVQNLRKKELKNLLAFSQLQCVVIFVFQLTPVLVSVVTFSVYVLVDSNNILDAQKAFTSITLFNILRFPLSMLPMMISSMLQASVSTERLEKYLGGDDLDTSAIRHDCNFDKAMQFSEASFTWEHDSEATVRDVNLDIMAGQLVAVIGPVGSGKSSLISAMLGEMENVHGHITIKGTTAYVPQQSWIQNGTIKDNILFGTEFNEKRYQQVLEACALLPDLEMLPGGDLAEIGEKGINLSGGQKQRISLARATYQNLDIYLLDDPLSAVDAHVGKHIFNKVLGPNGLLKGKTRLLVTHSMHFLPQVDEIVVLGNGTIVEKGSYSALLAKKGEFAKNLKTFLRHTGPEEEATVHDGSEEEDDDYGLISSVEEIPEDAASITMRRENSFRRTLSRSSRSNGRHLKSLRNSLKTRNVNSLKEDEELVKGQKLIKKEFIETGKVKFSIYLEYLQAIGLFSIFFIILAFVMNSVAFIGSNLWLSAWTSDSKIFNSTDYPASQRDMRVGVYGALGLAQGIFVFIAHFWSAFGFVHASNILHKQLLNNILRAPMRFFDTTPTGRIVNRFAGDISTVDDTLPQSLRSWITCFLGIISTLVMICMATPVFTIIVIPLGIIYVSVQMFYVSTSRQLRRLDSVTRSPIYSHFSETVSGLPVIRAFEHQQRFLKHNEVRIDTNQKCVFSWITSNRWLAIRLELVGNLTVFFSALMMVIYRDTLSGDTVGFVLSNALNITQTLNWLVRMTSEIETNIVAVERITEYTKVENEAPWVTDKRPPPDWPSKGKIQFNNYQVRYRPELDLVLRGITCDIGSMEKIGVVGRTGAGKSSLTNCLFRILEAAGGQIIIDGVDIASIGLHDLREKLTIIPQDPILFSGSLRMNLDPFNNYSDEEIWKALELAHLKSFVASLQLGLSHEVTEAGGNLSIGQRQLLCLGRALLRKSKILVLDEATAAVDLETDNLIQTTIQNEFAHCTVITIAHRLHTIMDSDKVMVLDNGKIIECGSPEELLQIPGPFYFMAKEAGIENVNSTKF

Row | SMILES | effect on CDCF transport [1] | IC50 [2] [µM] | effect on EG transport [2]
1 | CSc1ccc2c(c1)N(CCC1CCCCN1C)c1ccccc1S2 (stereo not shown) [thioridazine] | stimulating | 40 to 60 | –
2 | COc1ccc2c(c1)c(CC(=O)O)c(C)n2C(=O)c1ccc(Cl)cc1 [indomethacin] | – | – | stimulators

Further lines, results first:

Row | effect on CDCF transport [1] | IC50 [2] [µM] | effect on EG transport [2] | SMILES
3 | stimulating | 40 to 60 | – | CCCC1O[C@@H]2C[C@H]3[C@@H]4CCC5=CC(=O)C=C[C@]5(C)[C@H]4[C@@H](O)C[C@]3(C)[C@]2(C(=O)CO)O1 (stereo partly shown) [budes-onide]
4 | – | – | stimulators | O=C(O)Cc1ccccc1Nc1c(Cl)cccc1Cl [diclofenac]
5 | – | – | stimulators | C[C@]12CC[C@@H]3c4ccc(OS(=O)(=O)O)cc4CC[C@H]3[C@@H]1CCC2=O [estrone-3-sulfate]
